{
  "source": "patent US20110188043A1",
  "about": "“METHOD AND APPARATUS FOR MONITORING PROCESSES IN LIVING CELLS” (Yissum, Research Development Company of The Hebrew …, priority 2007, published 2011)",
  "key": {"[1]": {"test_system": "Human melanoma (MEL 1106) cells", "experiment": "FTIR-SPR measurements of Tfn-induced SPR signal shifts in a cell monolayer on an Au-coated ZnS prism", "format": "cell-based", "conditions": "for SPR signal shift on cell exposure to ligand: 5 μg/ml of Tfn, cells on Au-coated ZnS prism; for change in the average refraction index of cells Δn: calculated as Δn=ΔR/S at 4425 cm^−1", "protocol": "Surface plasmon (SP) was excited using Kretchmann's geometry as illustrated in FIG. 3A employing the Bruker FTIR spectrometer (Equinox 55—Bruker Optik GmbH, Ettlingen, Germany) equipped with a KBr beam splitter as mid-IR source, and a right-angle ZnS prism having a 20×40 mm base (ISP Optics, Inc., Irvington, N.Y, US) coated with an 18-nm-thick gold film (electron-beam evaporation). Cells were cultured on the gold surface, as described below. The prism and cells were attached to a flow chamber mounted on a goniometer, in such way that the cells on the gold-coated base faced the flow chamber's volume (0.5 ml). The flow chamber was filled with cell culture medium, resulting in direct contact between the medium and the gold layer, or cells cultured on that layer. The medium was passed through the chamber at a constant flow rate (5 μl/min) during the entire experiment, using a motorized bee syringe pump equipped with a variable speed controller. The temperature of the medium flowing through the chamber was controlled (±0.1° C.). The infrared light from the output window of the FTIR instrument passed through a collimator, consisting of a 1-mm diameter pinhole mounted between two gold coated off-axis parabolic mirrors, m1 and m2, with focal lengths of about 76.2 mm and 25.4 mm, respectively, along with a grid polarizer and an iris. The collimated beam (˜4 mm in diameter) was reflected from the ZnS prism and focused by an additional parabolic mirror, m3, onto a liquid-nitrogen-cooled MCT (HgCdTe) detector, mounted on the goniometer.\nHuman melanoma (MEL 1106) cells were cultured on a 10-cm dish in Dolbecco's modified Eagle's medium (D-MEM, Biological Industries, Israel), supplemented with 4.5 g/l D-glucose, 10% antibiotics, and 10% fetal calf serum, as previously described for HeLa cells [Ziblat et al., 2006]. These cells were used in the SPR experiments, and their culture on Au coated prisms was performed as follows: upon reaching 70% confluence, cells were detached from the dish by trypsin C (0.05% Trypsin/EDTA in Puck's saline A; Biological Industries, Israel) treatment, and brought to a cell density of about 1.8×10^5 cells/ml in complete growth medium. With reference to FIG. 7, three milliliters of cell suspension 29 were seeded on top of the Au-coated ZnS prism 27 mounted onto a home-made polycarbonate holder, such that the cell suspension 29 covered the entire prism's base 28. Cells were allowed to attach for at least 3 hrs in a CO2 incubator (5% CO2, 37° C., 90% humidity). Thereafter, growth medium (5 ml) was added and the prism 27 was placed in a CO2 incubator for an additional 2-3 days, until a uniform and nearly confluent monolayer of cells (above 70%; ˜30 cells per 1000 μm^2) covered the Au-surface.\nIn the initial phase of each experiment, cells cultured on an Au-coated prism were exposed to serum-free DMEM for 3 hours at […] for depleting the cells from internal pools of Tfn contributed by the serum. The prism with the cultured cells was then attached to the flow chamber, which was rapidly filled with pre-warmed (37° C.) minimal essential medium (MEM) containing Hank's salts (GIBCO), 20 mM Hepes, pH 7.2, and 5 μg/ml BSA (MEM-BSA). The temperature in the flow chamber was adjusted to 37° C.±0.1° C., unless otherwise indicated. Thereafter, the angle of incidence in the SPR configuration was set to θ=35.5°. […] These parameters were optimal, allowing maximal sensitivity (S=ΔR/Δn), and reasonable SP penetration depth/propagation length.\nThe reflectivity of the s-polarized beam was used as a background for subsequent measurements. The SPR signal is the ratio of the reflectivities obtained for the p-polarized and s-polarized beams. The FTIR-SPR set-up of the invention repeatedly measured the reflectivity spectra. This was done every 25 seconds with a 4-cm^−1 wavenumber resolution and with 16-scan averaging. The SPR measurements were carried out continuously for 15-20 minutes, until a stable SPR signal was recorded. […]"}, "[2]": {"test_system": "Melanoma cells", "experiment": "Time-lapse confocal imaging of fluorescently tagged-Tfn uptake", "format": "cell-based, human", "protocol": "Melanoma cells were cultured to ˜50% confluence on glass bottom culture dishes (35 mm dish, 14 mm Microwell; MatTek, Co., MA, USA). Cells were first exposed to growth medium lacking serum for 3 hrs prior to the experiment, and then washed three times with internalization buffer (150 mM NaCl, 20 mM Hepes, pH 7.4, 1 mM CaCl2, 5 mM KCl, 1 mM MgCl2, 10 mM Glucose). Following the last wash, internalization buffer containing 0.1 μM sulforhodamine green (SRG) (Biotium, Hayward, Calif.) was added to the medium. Cells were imaged (FIG. 10A—confocal imaging of live cells performed simultaneously in the green and red channels, about 30 sec (designated time 0) after cell exposure to the ligand) with an Olympus FV-1000 confocal microscope equipped with an on-scope incubator (Life Image Services, Bazel, Switzerland), which controls temperature and humidity, and provides an atmosphere of 5% CO2. A 60×/NA=1.35 oil immersion objective was used. […] First, one plane of focus was acquired, and Rhodamine Red'-holo Tfn (5 μg/ml; Jackson ImmunoResearch) was introduced into the imaging buffer. Confocal images of both the SRG (Ex: 514 nm; Em: 535-565 nm) and Rhodamine Red-holo-Tfn (Ex: 543 nm; Em: 560-660 nm) were acquired from the same section every 10 or 20 sec. A similar protocol was used for Lissamine Rhodamine-apo-Tfn, except that the SRG was imaged using 488-nm excitation and a 505-525-nm emission filter. The FV1000 was equipped with the ZDC (Zero Drift Controller) option, to maintain the same focus plane throughout the entire period of imaging.\nThe images were processed using ImageJ [Rasband, W. S., ImageJ, U.S. National Institutes of Health, Bethesda, Md., USA, http://rsb.info.nih.gov/ij/, 1997-2007] to determine fluorescence levels within cells as follows: First the despeckle filter (essentially a median filter with a 3×3 kernel) was applied to remove point noise and the SRG image was used to determine the cell boundaries; then, the average fluorescence intensity inside the cells (F(t)intracellular) was divided by the average fluorescence intensity in a region of interest outside the cells (<F(t)>extracellular). This procedure was adopted based on the assumption that there is insignificant depletion of labeled Tfn in the medium, so that the fluorescence in the medium should remain constant.\nThen, the fluorescence levels within the bounded area were determined in the red channels for each time frame. Background fluorescence levels measured before the addition of Rhodamine Red-Tfn were subtracted from values measured in the same channel during ligand introduction."}, "[3]": {"test_system": "HeLa cells", "experiment": "FTIR-SPR of cholesterol enrichment/depletion of the cell membrane", "format": "cell-based, human", "conditions": "λ=1.08 μm, 37° C.; mβCD-chol at t=0, mβCD at t=15 for 3 min", "from_the_text": "The penetration of cholesterol into the plasma membrane of the HeLa cells was studied with the FTIR-SPR technique of the invention (similar studies using SPR in the visible range were reported by Besenicar et al., [Biochimica et Biophysica Acta-Biomembranes, 177, 175 (2008).]. It is well-known that cholesterol enters mostly into the plasma membrane rather than into cytoplasm. Therefore, to achieve high sensitivity to membrane-related events, the near-infrared wavelength range was chosen, λsp=1÷1:08 μm, characterized by a relatively low SPR penetration depth.\nThe HeLa cells were grown on an SF-11 glass prism coated with 35-nm-thick gold film. The prism with the cells was mounted into a flow chamber and was equilibrated in growth medium for 5-7 minutes at 37° C. Then 10 mM of mfβCD-chol (methyl-beta-cyclodextrin loaded with cholesterol) was added, which is known to enrich the cells by cholesterol. The FTIR-SPR spectra was measured before and after adding the drugs. […] This corresponds to a refractive index increase because cholesterol has a higher refractive index than water. In contrast, when a similar chemical, mβCD, which is not loaded with cholesterol, was added (at t=15 for 3 min) to a growth solution the SPR is blue-shifted, which corresponds to a refractive index decrease. […]"}, "[4]": {"test_system": "Melanoma 1106 cell", "experiment": "FTIR-SPR of ferrotransferrin uptake with long-wavelength surface plasmon", "format": "cell-based, human", "conditions": "λ=2.54 μm", "from_the_text": "The FTIR-SPR technique of the invention was applied to study transferrin-induced clathrin-mediated endocytic processes that introduce Fe ions into the cell.\nThe same process was studied using a long-wavelength surface plasmon at λ=2.54 μm. Its penetration depth, δzd=1.2 μm (FIG. 20), is deep enough to penetrate the cells, although it senses mostly the cell periphery. […] The kinetics of the SPR reflectivity closely follows the fluorescence kinetics in the cell periphery (FIG. 27A), as expected. […] The obvious advantage of the SPR technique is that it is label-free. […] This rules out the possibility that the SPR shift results from accumulation of organic molecules in the cell (this would increase the refractive index). […] This is consistent with the biological picture of endocytosis that includes transferrin-induced vesicular transport."}, "[5]": {"test_system": "human red blood cells (RBCs)", "experiment": "FTIR-SPR measurement of glucose uptake by erythrocyte suspension", "format": "cell-based", "conditions": "λ=4 μm, 22° C., erythrocyte suspension in PBS", "protocol": "In the following section measurements of glucose uptake by erythrocyte suspension in the PBS medium are described. Briefly, fresh human red blood cells (RBCs) were washed four times in PBS by centrifugation. The supernatant and buffy coat cells were discarded and RBCs were resuspended in glucose-free PBS to yield ce=5% v/v. For complete glucose depletion, cells were incubated for 60 min at 22° C. in PBS. Then, RBCs were centrifuged and resuspended in fresh PBS containing the required concentrations of D-glucose supplemented with L-glucose, to keep the total glucose concentration (osmolarity) equal to 20 mM. The SPR measurements were performed at 22° C. to slow down cellular glycolysis. The measurements were performed using a ZnS prism coated with a 12-nm thick Au film. […] Although the sensitivity at this wavelength is low (FIG. 19A), the use of such a long wavelength here is mandatory in order to sense the processes inside erythrocytes. The average distance between the erythrocytes is Dece^1/3=17 μm. The surface plasmon propagation length, Lx=30 μm (FIG. 21), exceeds the distance between erythrocytes."}},
  "data": [
    {"molecule": "CN(C)CCCN1c2ccccc2Sc2ccc(Cl)cc21", "note": "[CPZ, Chlorpromazine, reference compound]", "values": [
      {"measurement": "SPR signal shift immediately after cell exposure to the drug", "setting": "[1]; 100 μM CPZ in MEM/BSA, 37° C.", "value": "sizeable shift of the SPR signal towards shorter wavelengths"},
      {"measurement": "effect on holo-Tfn-induced SPR signal shifts", "setting": "[1]; 100 μM CPZ, then approximately 90 min washout, compared with untreated cells", "value": "diminished SPR signal shifts"},
      {"measurement": "blue shift in the SPR signal relative to that induced by Tfn", "setting": "[1]; CPZ treatment per se", "value": 10, "unit": "times"},
      {"measurement": "washout time after which a steady SPR signal was measured", "setting": "[1]; CPZ washout with plain MEM/BSA", "value": "~30", "unit": "min"},
      {"measurement": "SPR signal shift on removal (washout) with plain MEM/BSA", "setting": "[1]", "value": "ongoing decrease"},
      {"measurement": "effect on rate of holo-Tfn uptake into the cells (fluorescence)", "setting": "[2]; CPZ treatment followed by 90 min of drug washout, 37° C.", "value": "significantly decreased the rate of holo-Tfn uptake"}
    ]},
    {"molecule": "methyl-β-cyclodextrin [mβCD, reference compound]", "values": [
      {"measurement": "effect on holo-Tfn-induced SPR signal shift (cholesterol depletion / replenishment)", "setting": "[1]; mβCD 3 mM for 15 min at 37° C., rinsed, then holo-Tfn", "value": "diminished compared with untreated cells"},
      {"measurement": "SPR shift after addition to growth medium", "setting": "[3]", "value": "blue-shifted"}
    ]},
    {"molecule": "holo-Tfn: Human apo-Tfn (transferrin) loaded with iron, which converts it to holo-Tfn", "values": [
      {"measurement": "SPR signal shift on cell exposure to ligand", "setting": "[1]; 37° C.", "value": "time-dependent shifts of the SPR minimum towards shorter wavelengths"},
      {"measurement": "Tfn-induced SPR shifts", "setting": "[1]; 19° C.", "value": "diminished SPR shifts"},
      {"measurement": "Tfn-induced SPR shifts", "setting": "[1]; 30° C.", "value": "larger SPR shifts"},
      {"measurement": "Tfn-induced SPR shifts", "setting": "[1]; 37° C.", "value": "maximal shifts"},
      {"measurement": "change in the average refraction index of cells Δn", "setting": "[1]", "value": "−4*10^−4"},
      {"measurement": "time over which the SPR signal increased before levelling off", "setting": "[1]; holo-Tfn, 37° C.", "value": "2 to 3", "unit": "min"},
      {"measurement": "SPR signal shift on removal (washout) with plain MEM/BSA", "setting": "[1]", "value": "red-shift in the SPR signal"},
      {"measurement": "cell fluorescence intensity over time", "setting": "[2]; holo-Ft tagged with Rhodamine Red, Melanoma 1106 cell", "value": "fluorescence intensity increases and then achieves saturation"},
      {"measurement": "SPR shift upon introduction into the solution", "setting": "[4]", "value": "blue-shifted"}
    ]},
    {"molecule": "Rhodamine Red-holo-Tfn: Rhodamine Red tagged holo-Tfn (Jackson ImmunoResearch) used for fluorescence imaging [reference compound]", "values": [
      {"measurement": "ligand internalization rates (fluorescence)", "setting": "[2]; lower temperatures (30° C. vs 37° C.)", "value": "reduced ligand internalization rates"}
    ]},
    {"molecule": "apo-Tfn: Human apo-Tfn dialyzed against sodium citrate to remove possible iron traces; tagged with Lissamine Rhodamine for imaging", "values": [
      {"measurement": "SPR signal shift on cell exposure to ligand", "setting": "[1]; 37° C.", "value": "small SPR signal shifts"},
      {"measurement": "change in the average refraction index of cells Δn", "setting": "[1]", "value": "smaller than −1*10^−4"},
      {"measurement": "accumulation of tagged Tfn fluorescence within the cells", "setting": "[2]; 37° C.", "value": "accumulated within the cells at slower rates"}
    ]},
    {"molecule": "O=C[C@H](O)[C@@H](O)[C@H](O)[C@H](O)CO", "note": "[D-glucose]", "values": [
      {"measurement": "reflectivity in the SPR regime upon addition", "setting": "[5]", "value": "reflectivity in the SPR regime rapidly increases with time, until saturation is reached"}
    ]}
  ]
}
